US9751869B2, “LXR modulators” (BRISTOL-MYERS SQUIBB COMPANY, priority 2013, dated 2017)

Biological target: T1, LXRβ (Homo sapiens, UniProt P55055)
T1 construct: Co-transfection expression plasmids, comprising full-length LXRα (pCMX-h LXRα or LXRβ (pCMX-hLXRβ)); expressed in transfected cells; host or cells: CV-1 African green monkey kidney cells, transient transfection with pCMX-hLXRβ
T1 sequence (P55055 1-460): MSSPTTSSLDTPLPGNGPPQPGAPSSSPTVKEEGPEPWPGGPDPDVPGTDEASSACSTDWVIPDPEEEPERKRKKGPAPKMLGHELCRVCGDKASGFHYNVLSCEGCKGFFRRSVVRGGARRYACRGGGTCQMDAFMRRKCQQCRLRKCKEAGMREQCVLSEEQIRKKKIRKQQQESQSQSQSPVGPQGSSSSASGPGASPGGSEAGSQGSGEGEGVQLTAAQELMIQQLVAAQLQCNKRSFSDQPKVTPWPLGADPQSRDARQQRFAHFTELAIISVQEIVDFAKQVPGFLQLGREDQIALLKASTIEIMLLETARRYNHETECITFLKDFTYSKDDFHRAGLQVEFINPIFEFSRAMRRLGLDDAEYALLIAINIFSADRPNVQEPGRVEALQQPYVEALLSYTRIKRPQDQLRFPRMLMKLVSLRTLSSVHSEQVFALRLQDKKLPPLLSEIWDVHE
T1 sequence (P19793 1-462 partner): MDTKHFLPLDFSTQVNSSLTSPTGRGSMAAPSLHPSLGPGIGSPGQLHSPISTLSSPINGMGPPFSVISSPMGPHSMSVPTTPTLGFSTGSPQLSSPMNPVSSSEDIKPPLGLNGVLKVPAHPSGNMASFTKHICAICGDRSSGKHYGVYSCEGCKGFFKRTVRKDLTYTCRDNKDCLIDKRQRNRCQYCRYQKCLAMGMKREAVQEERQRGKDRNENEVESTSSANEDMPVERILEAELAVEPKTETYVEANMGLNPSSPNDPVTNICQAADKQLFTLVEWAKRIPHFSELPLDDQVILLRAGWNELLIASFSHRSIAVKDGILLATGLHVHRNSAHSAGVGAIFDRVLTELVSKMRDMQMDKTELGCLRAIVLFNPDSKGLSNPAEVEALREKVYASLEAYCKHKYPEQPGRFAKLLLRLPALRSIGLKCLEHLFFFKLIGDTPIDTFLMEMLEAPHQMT
Experiment: LXR/LXRE co-transfection assay (luciferase reporter) in CV-1 cells, LXRβ
Type: cell-based
Settings: for EC50: CV-1 cells transfected with pCMX-hLXRβ and LXREx1-Tk-Luciferase, 20 hours incubation, read-out: LXRbeta agonism EC50; for Emax: read-out: LXRbeta % EFFICACY
In short: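 CV-1 cells transiently co-transfected with full-length human LXRβ, LXRE-Tk-luciferase reporter and β-galactosidase control, then exposed to compound (≤0.5% DMSO) for 20 h at 37 °C before luminescence read. EC50 from 10-point, half-log dose curves; efficacy relative to the sulfonamide high control, means of 2–3 experiments.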

[1] = CV-1 cells, relative to maximum response of high control N-(3-((4-fluorophenyl)-(naphthalene-2-sulfonyl)amino)propyl)-2,2-dimethylpropionamide

In the case of `Cc1c(C(C)(F)F)nn(C)c1-c1ccc(-c2ccc(CO)c(S(C)(=O)=O)c2)cc1-n1nncc1-c1ccc(OC(F)(F)F)cc1` [Example 11, (4′-(3-(1,1-difluoroethyl)-1,4-dimethyl-1H-pyrazol-5-yl)-3-(methylsulfonyl)-3′-(5-(4-(trifluoromethoxy)phenyl)-1H-1,2,3-triazol-1-yl)biphenyl-4-yl)methanol], the EC50 is reported as 15 nM and the Emax [1] is reported as 104%.
In the case of `Cc1nc(-c2ccc3c(c2)OC(F)(F)O3)c(-c2cc(-c3cc(F)c(CO)c(S(C)(=O)=O)c3)ccc2-c2cc(C(F)(F)c3nnc[nH]3)nn2C)o1` [Example 52, (4′-(3-(difluoro(4H-1,2,4-triazol-3-yl)methyl)-1-methyl-1H-pyrazol-5-yl)-3′-(4-(2,2-difluorobenzo[d][1,3]dioxol-5-yl)-2-methyloxazol-5-yl)-3-fluoro-5-(methylsulfonyl)biphenyl-4-yl)methanol], the EC50 is reported as 2520 nM and the Emax [1] is reported as 30%.
With `Cc1nc(-c2ccc3c(c2)OC(F)(F)O3)c(-c2cc(-c3cccc(S(C)(=O)=O)c3)ccc2-n2ccc(CO)n2)o1` [Example 363, (1-(3-(4-(2,2-difluorobenzo[d][1,3]dioxol-5-yl)-2-methyloxazol-5-yl)-3′-(methylsulfonyl)-[1,1′-biphenyl]-4-yl)-1H-pyrazol-3-yl)methanol] the EC50 was 1520 nM and the Emax [1] was 22%.
`Cc1nc(-c2ccc(OC(F)(F)F)cc2)c(-c2cc(-c3cccc(S(C)(=O)=O)c3)ccc2-c2cc(C(F)(F)C(C)(C)O)nn2C)o1` [Example 48, 1,1-difluoro-2-methyl-1-(1-methyl-5-(3-(2-methyl-4-(4-(trifluoromethoxy)phenyl)oxazol-5-yl)-3′-(methylsulfonyl)biphenyl-4-yl)-1H-pyrazol-3-yl)propan-2-ol] gave an EC50 of 46 nM and an Emax [1] of 27%.
With `Cc1nc(-c2ccc3c(c2)OC(F)(F)O3)c(-c2cc(-c3cc(F)c(CO)c(S(C)(=O)=O)c3)ccc2-c2cc(CO)nn2C)o1` [Example 99, (5-(3-(4-(2,2-difluorobenzo[d][1,3]dioxol-5-yl)-2-methyloxazol-5-yl)-3′-fluoro-4′-(hydroxymethyl)-5′-(methylsulfonyl)-[1,1′-biphenyl]-4-yl)-1-methyl-1H-pyrazol-3-yl)methanol] the EC50 was 279 nM and the Emax [1] was 26%.
`Cc1nc(-c2cc(-c3cccc(C(C)(C)C(N)=O)c3)ccc2-n2nc(C(F)(F)F)cc2Cl)c(-c2ccc(OC(F)(F)F)cc2)o1` [Example 404, 2-(4′-(5-chloro-3-(trifluoromethyl)-1H-pyrazol-1-yl)-3′-(2-methyl-5-(4-(trifluoromethoxy)phenyl)oxazol-4-yl)biphenyl-3-yl)-2-methylpropanamide] gave an EC50 of 185 nM and an Emax [1] of 67%.
With `Cc1nc(-c2ccc(OC(F)F)c(F)c2)c(-c2cc(-c3cc(F)c(CO)c(S(C)(=O)=O)c3)ccc2-c2cc(C(F)(F)C(=O)N(C)C)nn2C)o1` [Example 79, 2-(5-(3-(4-(4-(difluoromethoxy)-3-fluorophenyl)-2-methyloxazol-5-yl)-3′-fluoro-4′-(hydroxymethyl)-5′-(methylsulfonyl)biphenyl-4-yl)-1-methyl-1H-pyrazol-3-yl)-2,2-difluoro-N,N-dimethylacetamide] the EC50 was 17 nM and the Emax [1] was 87%.
`Cc1nc(-c2ccc(OC(F)(F)F)cc2)c(-c2cc(-c3cccc(C(C)(C)C(N)=O)c3)ccc2-n2ccc(C(=O)NCC(F)(F)F)n2)o1` [Example 366] was tested, and the EC50 was 293 nM and the Emax [1] was 28%.
With `CNS(=O)(=O)c1cccc(-c2ccc(-c3cc(C(F)(F)F)nn3C)c(-c3oc(C)nc3-c3ccc(OC(F)(F)F)cc3)c2)c1` [Example 127, N-methyl-4′-(1-methyl-3-(trifluoromethyl)-1H-pyrazol-5-yl)-3′-(2-methyl-4-(4-(trifluoromethoxy)phenyl)oxazol-5-yl)-[1,1′-biphenyl]-3-sulfonamide] the EC50 was 59 nM and the Emax [1] was 99%.
For `Cc1nc(-c2ccc3c(c2)OC(F)(F)O3)c(-c2cc(-c3cccc(S(C)(=O)=O)c3)ccc2-c2cc(C(C)OC(N)=O)nn2C)o1` (centres unmarked) [Example 130, 1-(5-(3-(4-(2,2-difluorobenzo[d][1,3]dioxol-5-yl)-2-methyloxazol-5-yl)-3′-(methylsulfonyl)-[1,1′-biphenyl]-4-yl)-1-methyl-1H-pyrazol-3-yl)ethyl carbamate], the EC50 was 113 nM and the “LXRbeta % EFFICACY” value [1] was 56%.
`Cn1nc(C(F)(F)CO)cc1-c1ccc(-c2cccc(S(C)(=O)=O)c2)cc1-n1nncc1-c1ccc(OC(F)(F)F)cc1` [Example 25, 2,2-difluoro-2-(1-methyl-5-(3′-(methylsulfonyl)-3-(5-(4-(trifluoromethoxy)phenyl)-1H-1,2,3-triazol-1-yl)-[1,1′-biphenyl]-4-yl)-1H-pyrazol-3-yl)ethanol] showed an EC50 of 1020 nM and an Emax [1] of 78%.
In the case of `Cc1nc(-c2ccc3c(c2)OC(F)(F)O3)c(-c2cc(-c3cc(F)c(CO)c(S(C)(=O)=O)c3)ccc2-n2ccc(C(N)=O)n2)o1` [Example 360, 1-(3-(4-(2,2-difluorobenzo[d][1,3]dioxol-5-yl)-2-methyloxazol-5-yl)-3-fluoro-4′-(hydroxymethyl)-5′-(methylsulfonyl)-[1,1′-biphenyl]-4-yl)-1H-pyrazole-3-carboxamide], the EC50 is reported as 263 nM and the Emax [1] is reported as 12%.
`Cn1nc(C(F)(F)F)cc1-c1ccc(-c2cc(Cl)c(CO)c(S(C)(=O)=O)c2)cc1-n1nncc1-c1ccc(OC(F)(F)F)cc1` [Example 13] was tested, and the EC50 was 45 nM and the Emax [1] was 83%.
`Cc1nc(-c2ccc3c(c2)OC(F)(F)O3)c(-c2cc(-c3cc(F)c(CO)c(S(C)(=O)=O)c3)ccc2-c2cc(C(C)(F)F)nn2C)o1` [Example 95, (3′-(4-(2,2-difluorobenzo[d][1,3]dioxol-5-yl)-2-methyloxazol-5-yl)-4′-(3-(1,1-difluoroethyl)-1-methyl-1H-pyrazol-5-yl)-3-fluoro-5-(methylsulfonyl)biphenyl-4-yl)methanol] was tested, and the EC50 was 19 nM and the Emax [1] was 65%.
`Cc1nc(-c2ccc3c(c2)OC(F)(F)O3)c(-c2cc(-c3cc(F)c(CO)c(S(C)(=O)=O)c3)ccc2-c2cc(C(C)(C)C(C)(C)O)nn2C)o1` [Example 66, 3-(5-(3-(4-(2,2-difluorobenzo[d][1,3]dioxol-5-yl)-2-methyloxazol-5-yl)-3′-fluoro-4′-(hydroxymethyl)-5′-(methylsulfonyl)biphenyl-4-yl)-1-methyl-1H-pyrazol-3-yl)-2,3-dimethylbutan-2-ol] gave an EC50 of 27 nM and an Emax [1] of 27%.
`Cc1nc(-c2ccc3c(c2)OC(F)(F)O3)c(-c2cc(-c3cc(F)cc(S(C)(=O)=O)c3)ccc2-c2cc(C(F)(F)C(N)=O)nn2C)o1` [Example 45, 2-(5-(3-(4-(2,2-difluorobenzo[d][1,3]dioxol-5-yl)-2-methyloxazol-5-yl)-3′-fluoro-5′-(methylsulfonyl)biphenyl-4-yl)-1-methyl-1H-pyrazol-3-yl)-2,2-difluoroacetamide] showed an EC50 of 297 nM and an Emax [1] of 45%.
`Cn1nc(C(F)(F)C(C)(C)O)cc1-c1ccc(-c2cc(F)c(CO)c(S(C)(=O)=O)c2)cc1-n1nncc1-c1ccc2c(c1)OC(F)(F)O2` [Example 34, 1-(5-(3-(5-(2,2-difluorobenzo[d][1,3]dioxol-5-yl)-1H-1,2,3-triazol-1-yl)-3′-fluoro-4′-(hydroxymethyl)-5′-(methylsulfonyl)-[1,1′-biphenyl]-4-yl)-1-methyl-1H-pyrazol-3-yl)-1,1-difluoro-2-methylpropan-2-ol] gave an EC50 of 878 nM and an Emax [1] of 63%.
`CC(C)c1nc(-c2ccc(OC(F)(F)F)cc2)c(-c2cc(-c3cccc(S(C)(=O)=O)c3)ccc2-n2ccc(C(F)(F)F)n2)o1` [Example 340, 2-isopropyl-5-(3′-(methylsulfonyl)-4-(3-(trifluoromethyl)-1H-pyrazol-1-yl)biphenyl-3-yl)-4-(4-(trifluoromethoxy)phenyl)oxazole] gave an EC50 of 279 nM and an Emax [1] of 72%.
`COc1ncc(-c2oc(C)nc2-c2cc(-c3cccc(S(C)(=O)=O)c3)ccc2-n2ccc(C(F)(F)F)n2)cc1F` [Example 407, 5-(5-fluoro-6-methoxypyridin-3-yl)-2-methyl-4-(3′-(methylsulfonyl)-4-(3-(trifluoromethyl)-1H-pyrazol-1-yl)biphenyl-3-yl)oxazole] gave an EC50 of 67 nM and an Emax [1] of 91%.
